From patent US10017506B2, “ATX modulating agents” (BIOGEN MA INC., priority 2012, dated 2018)

Biological target: T1, Human ATX protein (Homo sapiens, UniProt Q13822)
T1 construct: made in house
Assay: ATX biochemical FRET assay with FS-3 substrate
Details: FRET substrate FS-3 2 μM, ATX 1.0 μg/mL, 30 minutes pre-incubation, 2 hours at room temperature; read-out: IC50
How it was run: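 Enzyme at 1.0 μg/mL final, pre-incubated with compound (10-point, 3-fold series) for 30 min at RT in Tris pH 7.4 buffer with NaCl, KCl, CaCl2, MgCl2 and 1 mg/mL fatty-acid-free BSA. After FS-3 addition, 2 h at RT protected from light; fluorescence at 485/538 nm.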

Row | IC50 [nM] | SMILES
1 | ≤ 100 | CC[C@H]1CC[C@@H](Oc2ccc3ccc([C@H](C)N[C@H]4CC[C@@H](C(=O)O)CC4)cc3c2C(F)(F)F)CC1 [Example 135a, cis-4-(((S)-1-(7-((cis-4-ethylcyclohexyl)oxy)-8-(trifluoromethyl)naphthalen-2-yl)ethyl)amino)cyclohexanecarboxylic acid]
2 | ≤ 250 | CC[C@H]1CC[C@@H](Oc2ccc3ccc([C@@H](C)N[C@H]4CC[C@@H](C(=O)O)CC4)cc3c2C(F)(F)F)CC1 [Example 135b, cis-4-(((R)-1-(7-((cis-4-ethylcyclohexyl)oxy)-8-(trifluoromethyl)naphthalen-2-yl)ethyl)amino)cyclohexanecarboxylic acid]
3 | ≤ 100 | C[C@H](N[C@H]1CC[C@@H](C(=O)O)CC1)c1ccc2ccc(O[C@H]3CC[C@@H](C(F)(F)F)CC3)c(C(F)(F)F)c2c1 [Example 136a, cis-4-(((S)-1-(8-(trifluoromethyl)-7-((cis-4-(trifluoromethyl)cyclohexyl)oxy)naphthalen-2-yl)ethyl)amino)cyclohexanecarboxylic acid]
4 | ≤ 250 | C[C@@H](N[C@H]1CC[C@@H](C(=O)O)CC1)c1ccc2ccc(O[C@H]3CC[C@@H](C(F)(F)F)CC3)c(C(F)(F)F)c2c1 [Example 136b, cis-4-(((R)-1-(8-(trifluoromethyl)-7-((cis-4-(trifluoromethyl)cyclohexyl)oxy)naphthalen-2-yl)ethyl)amino)cyclohexanecarboxylic acid]

Second part, the molecule before the results:

Row | SMILES | IC50 [nM]
5 | O=C(O)CC1CCC(NCc2ccc3ccc(O[C@H]4CC[C@@H](C(F)(F)F)CC4)c(C(F)(F)F)c3c2)CC1 (stereo partly drawn) [Example 126, 2-(4-(((8-(trifluoromethyl)-7-((cis-4-(trifluoromethyl)cyclohexyl)oxy)naphthalen-2-yl)methyl)amino)cyclohexyl)acetic acid] | ≤ 500
6 | O=C(O)C1CCC(NCc2ccc3ccc(O[C@H]4CC[C@@H](C(F)(F)F)CC4)c(C(F)(F)F)c3c2)C1 (stereo partly drawn) [Example 127, 3-(((8-(trifluoromethyl)-7-((cis-4-(trifluoromethyl)cyclohexyl)oxy)naphthalen-2-yl)methyl)amino)cyclopentanecarboxylic acid] | ≤ 500
7 | CC(N[C@H]1CC[C@@H](C(=O)O)CC1)c1ccc2ccc(O[C@H]3CC[C@@H](C(F)(F)F)CC3)c(C(F)(F)F)c2c1 (stereo partly drawn) [Example 129, cis-4-((1-(8-(trifluoromethyl)-7-((cis-4-(trifluoromethyl)cyclohexyl)oxy)naphthalen-2-yl)ethyl)amino)cyclohexanecarboxylic acid] | ≤ 100
8 | CC[C@H]1CC[C@@H](Oc2ccc3ccc(C(C)NC45CCC(C(=O)O)(CC4)C5)cc3c2C(F)(F)F)CC1 (stereo partly drawn) [Example 130, 4-((1-(7-((cis-4-ethylcyclohexyl)oxy)-8-(trifluoromethyl)naphthalen-2-yl)ethyl)amino)bicyclo[2.2.1]heptane-1-carboxylic acid] | ≤ 250
9 | CC[C@H]1CC[C@@H](Oc2ccc3ccc(C(C)NC4CCC(C(=O)O)C4)cc3c2C(F)(F)F)CC1 (stereo partly drawn) [Example 131, 3-((1-(7-((cis-4-ethylcyclohexyl)oxy)-8-(trifluoromethyl)naphthalen-2-yl)ethyl)amino)cyclopentanecarboxylic acid] | ≤ 100
10 | CC[C@H]1CC[C@@H](Oc2ccc3ccc(C(C)N[C@H]4CC[C@@H](C(=O)O)CC4)cc3c2C(F)(F)F)CC1 (stereo partly drawn) [Example 134, cis-4-((1-(7-((cis-4-ethylcyclohexyl)oxy)-8-(trifluoromethyl)naphthalen-2-yl)ethyl)amino)cyclohexanecarboxylic acid] | ≤ 100
11 | CC(N[C@H]1CC[C@@H](C(=O)O)CC1)c1ccc2ccc(O[C@H]3CC[C@@H](C)CC3)c(C(F)(F)F)c2c1 (stereo partly drawn) [Example 142, cis-4-((1-(7-((cis-4-methylcyclohexyl)oxy)-8-(trifluoromethyl)naphthalen-2-yl)ethyl)amino)cyclohexanecarboxylic acid] | ≤ 100
12 | CC(N[C@H]1CC[C@H](C(=O)O)CC1)c1ccc2ccc(O[C@H]3CC[C@@H](C(F)(F)F)CC3)c(C(F)(F)F)c2c1 (stereo partly drawn) [Example 143, trans-4-((1-(8-(trifluoromethyl)-7-((cis-4-(trifluoromethyl)cyclohexyl)oxy)naphthalen-2-yl)ethyl)amino)cyclohexanecarboxylic acid] | ≤ 500
13 | CCC(N[C@H]1CC[C@@H](C(=O)O)CC1)c1ccc2ccc(O[C@H]3CC[C@@H](CC)CC3)c(C(F)(F)F)c2c1 (stereo partly drawn) [Example 145, cis-4-((1-(7-((cis-4-ethylcyclohexyl)oxy)-8-(trifluoromethyl)naphthalen-2-yl)propyl)amino)cyclohexanecarboxylic acid] | ≤ 100
14 | CCC(N[C@H]1CC[C@@H](C(=O)O)CC1)c1ccc2ccc(O[C@H]3CC[C@@H](C)CC3)c(C(F)(F)F)c2c1 (stereo partly drawn) [Example 146, cis-4-((1-(7-((cis-4-methylcyclohexyl)oxy)-8-(trifluoromethyl)naphthalen-2-yl)propyl)amino)cyclohexanecarboxylic acid] | ≤ 250
15 | CCC(N[C@H]1CC[C@@H](C(=O)O)CC1)c1ccc2ccc(O[C@H]3CC[C@@H](C(F)(F)F)CC3)c(C(F)(F)F)c2c1 (stereo partly drawn) [Example 147, cis-4-((1-(8-(trifluoromethyl)-7-((cis-4-(trifluoromethyl)cyclohexyl)oxy)naphthalen-2-yl)propyl)amino)cyclohexanecarboxylic acid] | ≤ 100
16 | CC(C)(C)[C@H]1CC[C@H](Nc2cc3cc(C(=O)NC4CCCC(C(=O)O)C4)ccc3cn2)CC1 (stereo partly drawn) [Example 150, 3-(3-((trans-4-(tert-butyl)cyclohexyl)amino)isoquinoline-6-carboxamido)cyclohexanecarboxylic acid] | ≤ 250
17 | CC(C)(C)[C@H]1CC[C@H](Nc2cc3cc(C(=O)NC45CCC(C(=O)O)(CC4)CC5)ccc3cn2)CC1 [Example 152, 4-(3-((trans-4-(tert-butyl)cyclohexyl)amino)isoquinoline-6-carboxamido)bicyclo[2.2.2]octane-1-carboxylic acid] | ≤ 100

Same assay, conditions: IC50, FRET substrate FS-3 2 μM, ATX 1.0 μg/mL, 30 minutes pre-incubation, 2 hours at room temperature

Row | SMILES | IC50 [nM]
18 | CC[C@H]1CC[C@@H](Oc2ccc3ccc(C(C)N4C5CCCC4CC(C(=O)OC)C5)cc3c2C(F)(F)F)CC1 (stereo partly drawn) [Example 132, methyl 9-(1-(7-((cis-4-ethylcyclohexyl)oxy)-8-(trifluoromethyl)naphthalen-2-yl)ethyl)-9-azabicyclo[3.3.1]nonane-3-carboxylate] | ≤ 250
19 | CC[C@H]1CC[C@@H](Oc2ccc3ccc([C@H](C)N4C5CCCC4CC(C(=O)O)C5)cc3c2C(F)(F)F)CC1 (stereo partly drawn) [Example 133a, 9-((S)-1-(7-((cis-4-ethylcyclohexyl)oxy)-8-(trifluoromethyl)naphthalen-2-yl)ethyl)-9-azabicyclo[3.3.1]nonane-3-carboxylic acid] | ≤ 100
20 | CC[C@H]1CC[C@@H](Oc2ccc3ccc([C@@H](C)N4C5CCCC4CC(C(=O)O)C5)cc3c2C(F)(F)F)CC1 (stereo partly drawn) [Example 133b, 9-((R)-1-(7-((cis-4-ethylcyclohexyl)oxy)-8-(trifluoromethyl)naphthalen-2-yl)ethyl)-9-azabicyclo[3.3.1]nonane-3-carboxylic acid] | ≤ 250
21 | C[C@@H](c1ccc2ccc(O[C@H]3CC[C@@H](C(F)(F)F)CC3)c(C(F)(F)F)c2c1)N1C2CCCC1CC(C(=O)O)C2 (stereo partly drawn) [Example 137a, 9-((S)-1-(8-(trifluoromethyl)-7-((cis-4-(trifluoromethyl)cyclohexyl)oxy)naphthalen-2-yl)ethyl)-9-azabicyclo[3.3.1]nonane-3-carboxylic acid] | ≤ 100
22 | C[C@H](c1ccc2ccc(O[C@H]3CC[C@@H](C(F)(F)F)CC3)c(C(F)(F)F)c2c1)N1C2CCCC1CC(C(=O)O)C2 (stereo partly drawn) [Example 137b, 9-((R)-1-(8-(trifluoromethyl)-7-((cis-4-(trifluoromethyl)cyclohexyl)oxy)naphthalen-2-yl)ethyl)-9-azabicyclo[3.3.1]nonane-3-carboxylic acid] | ≤ 100
23 | C[C@H]1CC[C@@H](Oc2ccc3cc(F)c(CN4C5CCCC4CC(C(=O)O)C5)cc3c2C(F)(F)F)CC1 (stereo partly drawn) [Example 138, 9-((3-fluoro-7-((cis-4-methylcyclohexyl)oxy)-8-(trifluoromethyl)naphthalen-2-yl)methyl)-9-azabicyclo[3.3.1]nonane-3-carboxylic acid] | ≤ 250
24 | CC(c1cc2c(C(F)(F)F)c(O[C@H]3CC[C@@H](C)CC3)ccc2cc1F)N1C2CCC1CC(C(=O)O)C2 (stereo partly drawn) [Example 139, 8-(1-(3-fluoro-7-((cis-4-methylcyclohexyl)oxy)-8-(trifluoromethyl)naphthalen-2-yl)ethyl)-8-azabicyclo[3.2.1]octane-3-carboxylic acid] | ≤ 100
25 | CC(c1cc2c(C(F)(F)F)c(O[C@H]3CC[C@@H](C(F)(F)F)CC3)ccc2cc1F)N1C2CCC1CC(C(=O)O)C2 (stereo partly drawn) [Example 140, 8-(1-(3-fluoro-8-(trifluoromethyl)-7-((cis-4-(trifluoromethyl)cyclohexyl)oxy)naphthalen-2-yl)ethyl)-8-azabicyclo[3.2.1]octane-3-carboxylic acid] | ≤ 100
26 | O=C(O)C1CC2CCC(C1)N2Cc1cc2c(C(F)(F)F)c(O[C@H]3CC[C@@H](C(F)(F)F)CC3)ccc2cc1F (stereo partly drawn) [Example 141, 8-((3-fluoro-8-(trifluoromethyl)-7-((cis-4-(trifluoromethyl)cyclohexyl)oxy)naphthalen-2-yl)methyl)-8-azabicyclo[3.2.1]octane-3-carboxylic acid] | ≤ 100
27 | CC[C@H]1CC[C@@H](Oc2ccc3ccc([C@H](C)N4C5CCC4CC(C(=O)O)C5)cc3c2C(F)(F)F)CC1 (stereo partly drawn) [Example 144a, 8-((S)-1-(7-((cis-4-ethylcyclohexyl)oxy)-8-(trifluoromethyl)naphthalen-2-yl)ethyl)-8-azabicyclo[3.2.1]octane-3-carboxylic acid] | ≤ 500
28 | CC[C@H]1CC[C@@H](Oc2ccc3ccc([C@@H](C)N4C5CCC4CC(C(=O)O)C5)cc3c2C(F)(F)F)CC1 (stereo partly drawn) [Example 144b, 8-((R)-1-(7-((cis-4-ethylcyclohexyl)oxy)-8-(trifluoromethyl)naphthalen-2-yl)ethyl)-8-azabicyclo[3.2.1]octane-3-carboxylic acid] | ≤ 100
